Reference: patent publication US20230247992A1, “ARTHROPOD CONTROL COMPOSITION” (Firmenich SA, priority 2020, published 2023)
Where two headings read alike, the source gives them in different places.

Assays:
Type in all cases: in vivo
Aedes aegypti [1] = assay: in vitro Warm Body assay, substance applied on glass Petri dish on top of the warm body (deterrence and repellence)
Description: (§1) The controlling effect, repellence & spatial repellence, according to the present invention is determined by testing the Warm Body assay against the yellow fever mosquito, Aedes aegypti Rockefeller strain. […] Observations of controlling efficacy were made on host-seeking females of uniform age, 5 to 10 days old selected as mentioned in the publication mentioned hereinabove. Tested hungry females had access to 10% sugar solution but were not blood-fed. Further information is provided in the accompanying examples.
(§2) The published protocol has been adapted in not manually counting the landing mosquitoes but automatically using an automatic counting software, the switch from Anopheles gambiae to A. aegypti led to a decrease of mosquitoes’ number placed in the tested cage due to the size difference (i.e. 30 mosquitoes instead of 50) and to an increase of lighting as A. aegypti is a diurnal mosquitoes (i.e. 150 lux instead of 4 lux). Further information is provided in the accompanying examples.,
(§3) The controlling effect of the compositions according to the present invention was assessed using an adapted Warm Body assay as defined in Kröber T, Kessler S, Frei J, Bourquin M, Guerin PM. 2010. An in vitro assay for testing mosquito controlling compounds employing a warm body and carbon dioxide as a behavioral activator. J Am Mosq Control Assoc. 26:381-386. In this in-vitro assay the number of mosquito landing on a warm body, simulating an attractive host treated with the tested stimuli, was measured in order to assess the repellence effect.
(§4) The published protocol has been adapted in not manually counting the landing mosquitoes but automatically using an automatic counting software, the switch from Anopheles gambiae to Aedes aegypti led to a decrease of mosquitoes’ number placed in the tested cage due to the size difference (i.e. 30 mosquitoes instead of 50) and to an increase of lighting as A. aegypti is a diurnal mosquitoes (i.e. 150 lux instead of 4 lux).
(§5) In addition, since the inventors were interested by assessing spatial repellence added or not to a deterrent effect, the substance was applied using two different technics. Whether, as in Kröber et al. (2010), both deterrent and repellent effect were investigated (i.e. similar effect than most body care applications such as lotion) and the substances was applied on a sandblasted glass Petri dish placed on top of the warm body. Whether only the spatial repellence was investigated (i.e. similar effect than most home care applications such as liquid electric dispenser) and the substance was introduced in the cage space thanks to a forced evaporation system as described in Chappuis C J-F, Niclass Y, Vuilleumier C, Starkenmann C. 2015. Quantitative Headspace Analysis of Selected Odorants from Latrines in Africa and India. Environ. Sci. Technol. 49:6134-6140.
(§6) As stated in Kröber et al. (2010), selected 10-12 days old hungry females, that had ad libitum access to 10% sugar solution but were not blood-fed, were selected for the assay.
On the sandblasted glass Petri dish covering the warm body (28.3 cm^2), 100 µL of the substances diluted at different concentrations in ethanol was applied. The number of mosquito landing on the warm body was counted for each stimuli, N,N-diethyl-3-methylbenzamide (DEET) and ethyl 3-[acetyl(butyl)amino]propanoate (IR3535) being used as benchmarks and pure ethanol as control.

Aedes aegypti [2] = assay: in vitro Warm Body assay, substance introduced in the cage air by forced evaporation (spatial repellence)
Description: as §1, §2, §3, §4, §5, §6
The forced evaporation system allows to fill the volume of the cage with stimuli tested, (2-methyl-4-oxo-3-prop-2-ynylcyclopent-2-en-1-yl) 2,2-dimethyl-3-(2-methylprop-1-enyl)cyclopropane-1-carboxylate (prallethrin) and N,N-diethyl-3-methylbenzamide (DEET) being used as benchmarks. In order to limit potential dead volumes in the cage, five flushes of the cage were made before starting the 2 minutes test during which the number of mosquito landings was counted.

Ixodes ricinus = assay: whole plant or invertebrate; details: for pest or weed control at 1 µg/cm2, 1 µg/cm2 / pest or weed control at 5 µg/cm2, 5 µg/cm2 / pest or weed control at 25 µg/cm2, 25 µg/cm2 / pest or weed control at 0.04 µg/cm2, 0.04 µg/cm2: Ixodes ricinus, read-out: mean percentage of ticks affected; for pest or weed control at 0.04 µg/cm2, 0.04 µg/cm2: 0.04 µg/cm^2, diluted in ethanol
[3] = 0.04% in ethanol, ethanol control 67.0±8.8 landings
[4] = 1% in ethanol, ethanol control 67.0±8.8 landings
[5] = […] in ethanol, ethanol control 67.0±8.8 landings
[6] = 0.017 µg/L air, without substance 54.1±4.9
[7] = 0.17 µg/L air, without substance 54.1±4.9
[8] = 1.7 µg/L air, without substance 54.1±4.9
[9] = 1 µg/cm^2, diluted in ethanol, ethanol control 0.6±0.5%
[10] = 25 µg/cm^2, diluted in ethanol, ethanol control 0.6±0.5%
[11] = 0.04% in ethanol, ethanol control 67.1±9.1 landings
[12] = 1% in ethanol, ethanol control 67.1±9.1 landings
[13] = […] in ethanol, ethanol control 67.1±9.1 landings
[14] = 0.0017 µg/L air, without substance 56.0±3.6
[15] = 0.017 µg/L air, without substance 56.0±3.6
[16] = 0.17 µg/L air, without substance 56.0±3.6
[17] = 17 µg/L air, without substance 56.0±3.6
[18] = 0.0017 µg/L air, without substance 54.1±4.9
[19] = 0.04% in ethanol, ethanol control 59.3±6.9 landings
[20] = 1% in ethanol, ethanol control 59.3±6.9 landings
[21] = […] in ethanol, ethanol control 59.3±6.9 landings

C/C=C/c1ccc(O)c(OC)c1 [2-methoxy-4-[(E)-prop-1-enyl]phenol]
number of mosquitoes landing within 2 minutes on the warm body (Aedes aegypti [1]; [3]): 14.0
number of mosquitoes landing within 2 minutes on the warm body (Aedes aegypti [1]; [4]): 0.0
number of mosquitoes landing within 2 minutes on the warm body (Aedes aegypti [1]; [5]): 57.0
landings per minute (Aedes aegypti [1]; concentration of 0.04%): ~ 10 landings per minute
number of mosquitoes landing within 2 minutes on the warm body, air in the cage saturated with stimulus (Aedes aegypti [2]; [6]): 12.0
number of mosquitoes landing within 2 minutes on the warm body, air in the cage saturated with stimulus (Aedes aegypti [2]; [7]): 4.0
number of mosquitoes landing within 2 minutes on the warm body, air in the cage saturated with stimulus (Aedes aegypti [2]; [8]): 11.0
pest or weed control at 1 µg/cm2, 1 µg/cm2 (Ixodes ricinus): 8%
pest or weed control at 5 µg/cm2, 5 µg/cm2 (Ixodes ricinus): 67%
pest or weed control at 25 µg/cm2, 25 µg/cm2 (Ixodes ricinus): 83%

O=C1CCC2CCCCC2O1 (centres unmarked) [3,4,4a,5,6,7,8,8a-octahydrochromen-2-one]
number of mosquitoes landing within 2 minutes on the warm body (Aedes aegypti [1]; [3]): 7.0
number of mosquitoes landing within 2 minutes on the warm body (Aedes aegypti [1]; [4]): 0.0
number of mosquitoes landing within 2 minutes on the warm body (Aedes aegypti [1]; [5]): 45.0
pest or weed control at 0.04 µg/cm2, 0.04 µg/cm2 (Ixodes ricinus; ethanol control 0.6±0.5%): 33%
pest or weed control at 1 µg/cm2, 1 µg/cm2 (Ixodes ricinus; [9]): 17%
pest or weed control at 25 µg/cm2, 25 µg/cm2 (Ixodes ricinus; [10]): 92%

CCCCCCC1CCCC(=O)O1 (centres unmarked) [6-hexyloxan-2-one]
number of mosquitoes landing within 2 minutes on the warm body (Aedes aegypti [1]; [11]): 13.0
number of mosquitoes landing within 2 minutes on the warm body (Aedes aegypti [1]; [12]): 5.0
number of mosquitoes landing within 2 minutes on the warm body (Aedes aegypti [1]; [13]): 74.0
number of mosquitoes landing within 2 minutes on the warm body, air in the cage saturated with stimulus (Aedes aegypti [2]; [14]): 31.0
number of mosquitoes landing within 2 minutes on the warm body, air in the cage saturated with stimulus (Aedes aegypti [2]; [15]): 28.0
number of mosquitoes landing within 2 minutes on the warm body, air in the cage saturated with stimulus (Aedes aegypti [2]; [16]): 4.0
number of mosquitoes landing within 2 minutes on the warm body, air in the cage saturated with stimulus (Aedes aegypti [2]; [17]): 5.0
landings in 2 minutes (Aedes aegypti [2]; dose of 0.17 µg/L of air): less than five

COc1ccc(COC(C)=O)cc1 [(4-methoxyphenyl)methyl acetate]
number of mosquitoes landing within 2 minutes on the warm body (Aedes aegypti [1]; [3]): 27.0
number of mosquitoes landing within 2 minutes on the warm body (Aedes aegypti [1]; [4]): 9.0
number of mosquitoes landing within 2 minutes on the warm body (Aedes aegypti [1]; [5]): 59.0
number of mosquitoes landing within 2 minutes on the warm body, air in the cage saturated with stimulus (Aedes aegypti [2]; [18]): 18.0
number of mosquitoes landing within 2 minutes on the warm body, air in the cage saturated with stimulus (Aedes aegypti [2]; [6]): 26.5
number of mosquitoes landing within 2 minutes on the warm body, air in the cage saturated with stimulus (Aedes aegypti [2]; [7]): 34.5
number of mosquitoes landing within 2 minutes on the warm body, air in the cage saturated with stimulus (Aedes aegypti [2]; [8]): 28.0

CCN(CC)C(=O)c1cccc(C)c1 [N,N-diethyl-3-methylbenzamide, reference compound]
number of mosquitoes landing within 2 minutes on the warm body (Aedes aegypti [1]; [19]): 5.1
number of mosquitoes landing within 2 minutes on the warm body (Aedes aegypti [1]; [3]): 5.1
number of mosquitoes landing within 2 minutes on the warm body (Aedes aegypti [1]; [11]): 5.1
number of mosquitoes landing within 2 minutes on the warm body (Aedes aegypti [1]; [20]): 2.6
number of mosquitoes landing within 2 minutes on the warm body (Aedes aegypti [1]; [4]): 2.6
number of mosquitoes landing within 2 minutes on the warm body (Aedes aegypti [1]; [12]): 2.6
number of mosquitoes landing within 2 minutes on the warm body (Aedes aegypti [1]; [21]): 44.9
number of mosquitoes landing within 2 minutes on the warm body (Aedes aegypti [1]; [5]): 44.9
number of mosquitoes landing within 2 minutes on the warm body (Aedes aegypti [1]; [13]): 44.9
number of mosquitoes landing within 2 minutes on the warm body, air in the cage saturated with stimulus (Aedes aegypti [2]; [18]): 35.0
number of mosquitoes landing within 2 minutes on the warm body, air in the cage saturated with stimulus (Aedes aegypti [2]; 0.0017 µg/L air, without substance 54.7±3.2): 35.0
number of mosquitoes landing within 2 minutes on the warm body, air in the cage saturated with stimulus (Aedes aegypti [2]; [14]): 35.0
number of mosquitoes landing within 2 minutes on the warm body, air in the cage saturated with stimulus (Aedes aegypti [2]; [6]): 28.0
number of mosquitoes landing within 2 minutes on the warm body, air in the cage saturated with stimulus (Aedes aegypti [2]; 0.017 µg/L air, without substance 54.7±3.2): 28.0
number of mosquitoes landing within 2 minutes on the warm body, air in the cage saturated with stimulus (Aedes aegypti [2]; [15]): 28.0
number of mosquitoes landing within 2 minutes on the warm body, air in the cage saturated with stimulus (Aedes aegypti [2]; [7]): 24.0
number of mosquitoes landing within 2 minutes on the warm body, air in the cage saturated with stimulus (Aedes aegypti [2]; 0.17 µg/L air, without substance 54.7±3.2): 24.0
number of mosquitoes landing within 2 minutes on the warm body, air in the cage saturated with stimulus (Aedes aegypti [2]; [16]): 24.0
number of mosquitoes landing within 2 minutes on the warm body, air in the cage saturated with stimulus (Aedes aegypti [2]; [8]): 1.5
number of mosquitoes landing within 2 minutes on the warm body, air in the cage saturated with stimulus (Aedes aegypti [2]; 1.7 µg/L air, without substance 54.7±3.2): 1.5
number of mosquitoes landing within 2 minutes on the warm body, air in the cage saturated with stimulus (Aedes aegypti [2]; 1.7 µg/L air, without substance 56.0±3.6): 1.5
number of mosquitoes landing within 2 minutes on the warm body, air in the cage saturated with stimulus (Aedes aegypti [2]; 17 µg/L air, without substance 54.1±4.9): 3.0
number of mosquitoes landing within 2 minutes on the warm body, air in the cage saturated with stimulus (Aedes aegypti [2]; 17 µg/L air, without substance 54.7±3.2): 3.0
number of mosquitoes landing within 2 minutes on the warm body, air in the cage saturated with stimulus (Aedes aegypti [2]; [17]): 3.0

CCCCN(CCC(=O)OCC)C(C)=O [ethyl 3-[acetyl(butyl)amino]propanoate, reference compound]
number of mosquitoes landing within 2 minutes on the warm body (Aedes aegypti [1]; [19]): 20.7
number of mosquitoes landing within 2 minutes on the warm body (Aedes aegypti [1]; [3]): 20.7
number of mosquitoes landing within 2 minutes on the warm body (Aedes aegypti [1]; [11]): 20.7
number of mosquitoes landing within 2 minutes on the warm body (Aedes aegypti [1]; [20]): 7.7
number of mosquitoes landing within 2 minutes on the warm body (Aedes aegypti [1]; [4]): 7.7
number of mosquitoes landing within 2 minutes on the warm body (Aedes aegypti [1]; [12]): 7.7
number of mosquitoes landing within 2 minutes on the warm body (Aedes aegypti [1]; [21]): 70.0
number of mosquitoes landing within 2 minutes on the warm body (Aedes aegypti [1]; [5]): 70.0
number of mosquitoes landing within 2 minutes on the warm body (Aedes aegypti [1]; [13]): 70.0
mean percentage of ticks affected (Ixodes ricinus; [9]): 33%
mean percentage of ticks affected (Ixodes ricinus; 1 µg/cm^2, diluted in ethanol, ethanol control 4.3±2.1%): 33%
mean percentage of ticks affected (Ixodes ricinus; 5 µg/cm^2, diluted in ethanol, ethanol control 0.6±0.5%): 67%
mean percentage of ticks affected (Ixodes ricinus; 5 µg/cm^2, diluted in ethanol, ethanol control 4.3±2.1%): 67%
mean percentage of ticks affected (Ixodes ricinus; [10]): 91%
mean percentage of ticks affected (Ixodes ricinus; 25 µg/cm^2, diluted in ethanol, ethanol control 4.3±2.1%): 91%
pest or weed control at 0.04 µg/cm2, 0.04 µg/cm2 (Ixodes ricinus; ethanol control 0.6±0.5%): 13%
pest or weed control at 1 µg/cm2, 1 µg/cm2 (Ixodes ricinus; 1 µg/cm^2, diluted in ethanol, ethanol control 1.0±1.2%): 33%
pest or weed control at 5 µg/cm2, 5 µg/cm2 (Ixodes ricinus; 5 µg/cm^2, diluted in ethanol, ethanol control 1.0±1.2%): 67%
pest or weed control at 25 µg/cm2, 25 µg/cm2 (Ixodes ricinus; 25 µg/cm^2, diluted in ethanol, ethanol control 1.0±1.2%): 91%

CCC=CCC1C(=O)CCC1CC(=O)OC (centres unmarked) [methyl 2-(3-oxo-2-pent-2-enylcyclopentyl)acetate]
number of mosquitoes landing within 2 minutes on the warm body (Aedes aegypti [1]; [3]): 2.0
number of mosquitoes landing within 2 minutes on the warm body (Aedes aegypti [1]; [4]): 1.0
number of mosquitoes landing within 2 minutes on the warm body (Aedes aegypti [1]; [5]): 54.0
number of mosquitoes landing within 2 minutes on the warm body, air in the cage saturated with stimulus (Aedes aegypti [2]; [6]): 10.0
number of mosquitoes landing within 2 minutes on the warm body, air in the cage saturated with stimulus (Aedes aegypti [2]; [7]): 4.0
number of mosquitoes landing within 2 minutes on the warm body, air in the cage saturated with stimulus (Aedes aegypti [2]; [8]): 15.0
